The target in assay [1] is T1, HIV protease (Human immunodeficiency virus type 1 group M subtype B, UniProt P04585).
T1 construct: an HIV-encoded enzyme known as HIV protease
The assay is described as follows: biochemical. Conditions: recombinant HIV protease; decapeptide substrate; HPLC assay; read-out: IC50 (concentration causing 50% inhibition of HIV protease). The text has this:
The procedure is based on the capacity of the test compound to inhibit enzymatic cleavage by HIV protease of a decapeptide (the substrate) having an amino acid sequence which includes a known HIV protease cleavage site of a HIV polyprotein; see H. G. Krausslich et al., Proc. Natl. Acad. Sci. USA, 86, 807 (1989).
Anderson, S. Rakhit and C. Yoakim in the European patent application 443 560, published Aug. 28, 1991.

In assay [2] the test system is HIV (H9/HTLV-IIIB stock) in C8166 cells. The assay is described as follows: Cell culture assay: inhibition of syncytia formation in HIV-infected C8166 cells (antiviral, anti-HIV effect). The following applies: Human immunodeficiency virus 1; C8166 cells; H9/HTLV-IIIB, 50 times TCID50; 72 h, 37°; read-out: EC50 (concentration causing 50% inhibition of syncytia formation). In kind it is cell-based, HIV (HTLV-IIIB); human T4 cell line. The text has this: Typical of such procedures are those described by S. Harada and N. Yamamoto, Jpn. J. Cancer Res. (Gann), 76, 432 (1985), and S. Harada et al., Science, 229, 563 (1985). An assay based on the latter procedures is described in the examples hereinafter.
In addition, Tables 1 to 8 list the results for exemplified compounds of formula 1 when assayed for antiviral (anti-HIV) effects according to the following protocol which is based on a cell culture assay previously described by Harada et al., supra. Transformed cells are used because of the rapidity with which HIV will replicate in the cells.
1. The test compound is dissolved in dimethylsulfoxide to a concentration of 5 mg/mL. The resultant solution .can be stored at 4° until use.
2. The resultant solution is diluted in RPMI 1640 (Gibco Laboratories, St. Lawrence, Mass., USA) to four times (4×) the final concentration which is to be tested. Once diluted in RPMI 1640, the solution is used in the cell culture assay within 4 h.
3. The latter solution (50 μL) is added to triplicate wells of a 96 well flat bottomed microtiter plate. RPMI (50 μL) also is added to control wells.
4. C8166 cells (5×10^4) in 50 μL of HEPES-buffered RPMI 1640 (pH=7.2), 10% heat inactivated fetal calf serum (FCS), […] gentamicin (complete media) are added to all wells.
5. Fifty times TCID50 of H9/HTLV-IIIB stock (stored in liquid nitrogen as cell culture supernatant in 50% FCS) in 100 μL of complete media is added to all wells. The infectious titer of the virus stocks is as previously determined by end point dilution on C8166 cells. The titer of stocks are stable for 6-12 months when stored at -193°.
6. Microtiter plates are then placed on level shelves of a 37°, 5% CO2 humidified incubator for 72 h.
7. Plates are then removed and centers of syncytia are counted in each well by low power phase contrast light microscopy. […] Control wells should have between 25 and 75 centers of syncytia per well.
8. Percent inhibition of syncytia formation is calculated by the formula: [formula]
The concentration of the test compound which causes a 50% inhibition of syncytia formation, i.e. the EC50, is determined by using the technique of serial dilution of the working solution at step 3 and graphically plotting the observed percent inhibition of syncytia formation against the various concentrations of the test compound.
In the following tables, assay results are listed for the exemplified compounds from the aforementioned recombinant HIV protease HPLC assay under the heading IC50 (nM) and from the cell culture assay under the heading EC50 (nM). Note that for some of the compounds listed in tables, the EC50 's have not been determined (ND).

Molecules are shown by their SMILES. pEC50, pIC50: −log10 of the molar value.

In the case of `CCC(CC)NC(=O)C[C@@H](C(=O)NC[C@@H](O)[C@H](Cc1ccc(O)cc1)NC(=O)COc1c(C)cccc1C)C(C)(C)C` [Entry 63, N^1-(1-ethylpropyl)-N^4 -{3(S)-{{(2,6-dimethylphenoxy)-acetyl}amino}-2(R)-hydroxy-4-(4-hydroxyphenyl)butyl}-3(R)-tert-butylbutanediamide], the pIC50 in assay [1] was 8.51. Moreover, the pEC50 in assay [2] is 6.96.

As for `CCC(CC)NC(=O)C[C@@H](C(=O)NC[C@@H](O)[C@H](Cc1ccccc1)NC(=O)c1cc2ccccc2n1C)C(C)(C)C` [Entry 64], the pIC50 in assay [1] is 8.05. Also, the pEC50 in assay [2] was 6.19.

`CCC(CC)NC(=O)C[C@@H](C(=O)NC[C@@H](O)[C@H](Cc1ccccc1)NC(=O)c1ccc(Cl)cc1)C(C)(C)C` [Entry 65]: the pIC50 in assay [1] was 8.06. For the same compound, the pEC50 in assay [2] is 6.07.

Regarding `CCC(CC)NC(=O)C[C@@H](C(=O)NC[C@@H](O)[C@H](Cc1ccccc1)NC(=O)c1ccc(Cl)cc1Cl)C(C)(C)C` [Entry 66], the pIC50 in assay [1] is 8.33. Further, in assay [2], the pEC50 was 6.17.

As for `CCC(CC)NC(=O)C[C@@H](C(=O)NC[C@@H](O)[C@H](Cc1ccccc1)NC(=O)c1c(Cl)ccc(Cl)c1Cl)C(C)(C)C` [Entry 67], the pIC50 in assay [1] is 8.22. For the same compound, the pEC50 in assay [2] was 6.44.

With `CCC(CC)NC(=O)C[C@@H](C(=O)NC[C@@H](O)[C@H](Cc1ccccc1)NC(=O)c1ccccc1C)C(C)(C)C` [Entry 68], in assay [1], the pIC50 was 8.19. In addition, the pEC50 in assay [2] is 6.43.

As for `CCC(CC)NC(=O)C[C@@H](C(=O)NC[C@@H](O)[C@H](Cc1ccccc1)NC(=O)c1cccc(N)c1C)C(C)(C)C` [Entry 69], in assay [1], the pIC50 was 8.28. For the same compound, in assay [2], the pEC50 is 6.59.

For the compound `CCC(CC)NC(=O)C[C@@H](C(=O)NC[C@@H](O)[C@H](Cc1ccccc1)NC(=O)COc1c(C)cc(C)cc1C)C(C)(C)C` [Entry 70], the pIC50 in assay [1] was 8.34. The pEC50 in assay [2] is 5.92.

For the compound `CCC(CC)NC(=O)C[C@@H](C(=O)NC[C@@H](O)[C@H](Cc1ccccc1)NC(=O)COc1c(C)cccc1C)C(C)(C)C` [Entry 71, N^1-(1-Ethylpropyl)-N^4 -{3(S)-{{(2,6-dimethylphenoxy)acetyl}amino}-2(R)-hydroxy-4-phenylbutyl}-3(R)-tert-butylbutanediamide], the pIC50 in assay [1] was 8.46. In addition, in assay [2], the pEC50 was 6.19.

With `Cc1cccc(C)c1NC(=O)C[C@@H](C(=O)NC[C@@H](O)[C@H](Cc1ccccc1)NC(=O)OCc1ccccc1)C(C)(C)C` [Entry 72], the pIC50 in assay [1] is 8.52. Moreover, in assay [2], the pEC50 is 6.44.

For the compound `Cc1cccc(C)c1NC(=O)C[C@@H](C(=O)NC[C@@H](O)[C@H](Cc1ccccc1)NC(=O)COc1c(C)cccc1C)C(C)(C)C` [Entry 73], the pIC50 in assay [1] was 8.59. The pEC50 in assay [2] is 6.21.

Regarding `Cc1ccc(C)c(C(=O)N[C@@H](Cc2ccccc2)[C@H](O)CNC(=O)[C@H](CC(=O)Nc2c(C)cccc2C)C(C)(C)C)c1` [Entry 74], the pIC50 in assay [1] was 8.70. Moreover, in assay [2], the pEC50 is 6.43.

For the origin of these results see patent publication US5545640A, “Protease inhibiting succinic acid derivatives” (Bio-Mega/Boehringer Ingeleheim Research Inc., priority 1995, dated 1996).
